# Laboratory results from ChEMBL document CHEMBL1201862, “PubChem BioAssay data set” (2004).
#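 Values below derive from 48-hour exposures of cells grown in 96-well plates, with endpoints linearly interpolated between the two concentrations bracketing the appropriate inhibition level. GI50: concentration for 50% inhibition of growth.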 The source made the active and inactive calls. Cut-off read from the data, not from the text of the source: active = GI50 up to about 1.1 µM and inactive = higher.
# How the values were obtained:
# Assay in all cases: NCI anticancer screen, dose series, 48 h
# 786-0 = tested on: 786-0
# A498 = tested on: A498
# A549 = tested on: A549
# ACHN = tested on: ACHN
# BT-549 = tested on: BT-549
# CAKI-1 = tested on: CAKI-1
# CCRF-CEM = tested on: CCRF-CEM
# COLO 205 = tested on: COLO 205
# DU-145 = tested on: DU-145
# EKVX = tested on: EKVX
# HCC 2998 = tested on: HCC 2998
# HCT-116 = tested on: HCT-116
# HCT-15 = tested on: HCT-15
# HL-60 = tested on: HL-60
# HOP-62 = tested on: HOP-62
# HOP-92 = tested on: HOP-92
# HT-29 = tested on: HT-29
# Hs-578T = tested on: Hs-578T
# IGROV-1 = tested on: IGROV-1
# K562 = tested on: K562
# KM12 = tested on: KM12
# LOX IMVI = tested on: LOX IMVI
# M14 = tested on: M14
# MCF7 = tested on: MCF7
# MDA-MB-231 = tested on: MDA-MB-231
# MDA-MB-435 = tested on: MDA-MB-435
# MDA-N = tested on: MDA-N
# MOLT-4 = tested on: MOLT-4
# Malme-3M = tested on: Malme-3M
# NCI-H226 = tested on: NCI-H226
# NCI-H23 = tested on: NCI-H23
# NCI-H460 = tested on: NCI-H460
# NCI-H522 = tested on: NCI-H522
# NCI/ADR-RES = tested on: NCI/ADR-RES
# OVCAR-3 = tested on: OVCAR-3
# OVCAR-4 = tested on: OVCAR-4
# OVCAR-5 = tested on: OVCAR-5
# OVCAR-8 = tested on: OVCAR-8
# PC-3 = tested on: PC-3
# RPMI-8226 = tested on: RPMI-8226
# RXF 393 = tested on: RXF 393
# SF-268 = tested on: SF-268
# SF-295 = tested on: SF-295
# SF-539 = tested on: SF-539
# SK-MEL-28 = tested on: SK-MEL-28
# SK-MEL-2 = tested on: SK-MEL-2
# SK-MEL-5 = tested on: SK-MEL-5
# SK-OV-3 = tested on: SK-OV-3
# SN12C = tested on: SN12C
# SNB-19 = tested on: SNB-19
# SNB-75 = tested on: SNB-75
# SR = tested on: SR
# SW-620 = tested on: SW-620
# T47D = tested on: T47D
# TK-10 = tested on: TK-10
# U-251 = tested on: U-251
# UACC-257 = tested on: UACC-257
# UACC-62 = tested on: UACC-62
# UO-31 = tested on: UO-31
smiles,measurement,setting,value
O=C(N/N=C\c1cccc2ccccc12)Nc1ccc([N+](=O)[O-])cc1,GI50,786-0,3.54 µM (inactive)
same,GI50,A498,2.66 µM (inactive)
same,GI50,A549,9.71 µM (inactive)
same,GI50,ACHN,11.6 µM (inactive)
same,GI50,BT-549,20 µM (inactive)
same,GI50,CAKI-1,42.1 µM (inactive)
same,GI50,CCRF-CEM,24.3 µM (inactive)
same,GI50,COLO 205,17.1 µM (inactive)
same,GI50,DU-145,15.3 µM (inactive)
same,GI50,EKVX,> 39.4 µM (inactive)
same,GI50,HCC 2998,15.8 µM (inactive)
same,GI50,HCT-116,6.28 µM (inactive)
same,GI50,HCT-15,13.9 µM
same,GI50,HL-60,> 40.6 µM (inactive)
same,GI50,HOP-62,17.9 µM (inactive)
same,GI50,HOP-92,6.67 µM (inactive)
same,GI50,HT-29,16.8 µM (inactive)
same,GI50,Hs-578T,25.4 µM (inactive)
same,GI50,IGROV-1,18.4 µM (inactive)
same,GI50,K562,5.58 µM (inactive)
same,GI50,KM12,10.9 µM (inactive)
same,GI50,LOX IMVI,21.6 µM (inactive)
same,GI50,M14,28.1 µM (inactive)
same,GI50,MCF7,9.51 µM (inactive)
same,GI50,MDA-MB-231,30.7 µM (inactive)
same,GI50,MDA-MB-435,18.9 µM (inactive)
same,GI50,MDA-N,19.1 µM (inactive)
same,GI50,MOLT-4,20.8 µM (inactive)
same,GI50,Malme-3M,14.2 µM (inactive)
same,GI50,NCI-H226,23.3 µM (inactive)
same,GI50,NCI-H23,8.89 µM (inactive)
same,GI50,NCI-H460,10.9 µM (inactive)
same,GI50,NCI-H522,5.66 µM (inactive)
same,GI50,NCI/ADR-RES,13.9 µM (inactive)
same,GI50,OVCAR-3,7.74 µM (inactive)
same,GI50,OVCAR-4,8.04 µM (inactive)
same,GI50,OVCAR-5,19.7 µM (inactive)
same,GI50,OVCAR-8,7.64 µM (inactive)
same,GI50,PC-3,6.95 µM (inactive)
same,GI50,RPMI-8226,> 19.7 µM (inactive)
same,GI50,RXF 393,7.13 µM (inactive)
same,GI50,SF-268,19.5 µM (inactive)
same,GI50,SF-295,13.7 µM (inactive)
same,GI50,SF-539,8.05 µM (inactive)
same,GI50,SK-MEL-28,27.7 µM (inactive)
same,GI50,SK-MEL-2,20 µM (inactive)
same,GI50,SK-MEL-5,22.6 µM (inactive)
same,GI50,SK-OV-3,24.6 µM (inactive)
same,GI50,SN12C,18.5 µM (inactive)
same,GI50,SNB-19,21.4 µM (inactive)
same,GI50,SNB-75,38.9 µM (inactive)
same,GI50,SR,> 27.6 µM (inactive)
same,GI50,SW-620,29.6 µM (inactive)
same,GI50,T47D,4.28 µM (inactive)
same,GI50,TK-10,4.94 µM (inactive)
same,GI50,U-251,17.1 µM (inactive)
same,GI50,UACC-257,25.1 µM (inactive)
same,GI50,UACC-62,18.1 µM (inactive)
same,GI50,UO-31,12.8 µM (inactive)
COc1ccc(C(OCC2OC(n3cc(C)c(=O)[nH]c3=O)CC2n2cc(Cn3cc(I)c(=O)[nH]c3=O)nn2)(c2ccccc2)c2ccccc2)cc1 (stereo unspecified),GI50,786-0,> 100 µM (inactive)
same,GI50,A498,> 100 µM (inactive)
same,GI50,A549,> 100 µM (inactive)
same,GI50,ACHN,> 100 µM (inactive)
same,GI50,BT-549,> 100 µM (inactive)
same,GI50,CAKI-1,> 100 µM (inactive)
same,GI50,CCRF-CEM,11.2 µM (inactive)
same,GI50,COLO 205,> 100 µM (inactive)
same,GI50,DU-145,> 100 µM (inactive)
same,GI50,EKVX,> 100 µM (inactive)
same,GI50,HCC 2998,> 100 µM (inactive)
same,GI50,HCT-116,> 100 µM (inactive)
same,GI50,HCT-15,> 100 µM
same,GI50,HL-60,1.58 µM (inactive)
same,GI50,HOP-62,> 100 µM (inactive)
same,GI50,HOP-92,> 100 µM (inactive)
same,GI50,HT-29,> 100 µM (inactive)
same,GI50,Hs-578T,44.8 µM (inactive)
same,GI50,IGROV-1,> 100 µM (inactive)
same,GI50,KM12,14.2 µM (inactive)
same,GI50,LOX IMVI,> 100 µM (inactive)
same,GI50,M14,> 100 µM (inactive)
same,GI50,MCF7,> 100 µM (inactive)
same,GI50,MDA-MB-231,> 100 µM (inactive)
same,GI50,MDA-MB-435,> 100 µM (inactive)
same,GI50,MDA-N,> 100 µM (inactive)
same,GI50,MOLT-4,7.67 µM (inactive)
same,GI50,Malme-3M,> 100 µM (inactive)
same,GI50,NCI-H226,> 100 µM (inactive)
same,GI50,NCI-H23,> 100 µM (inactive)
same,GI50,NCI-H522,> 100 µM (inactive)
same,GI50,NCI/ADR-RES,> 100 µM (inactive)
same,GI50,OVCAR-3,> 100 µM (inactive)
same,GI50,OVCAR-4,> 100 µM (inactive)
same,GI50,OVCAR-5,> 100 µM (inactive)
same,GI50,OVCAR-8,> 100 µM (inactive)
same,GI50,PC-3,> 100 µM (inactive)
same,GI50,RPMI-8226,15.2 µM (inactive)
same,GI50,RXF 393,> 100 µM (inactive)
same,GI50,SF-268,78.5 µM (inactive)
same,GI50,SF-295,> 100 µM (inactive)
same,GI50,SF-539,> 100 µM (inactive)
same,GI50,SK-MEL-28,> 100 µM (inactive)
same,GI50,SK-MEL-2,> 100 µM (inactive)
same,GI50,SK-MEL-5,> 100 µM (inactive)
same,GI50,SK-OV-3,> 100 µM (inactive)
same,GI50,SN12C,> 100 µM (inactive)
same,GI50,SNB-19,> 100 µM (inactive)
same,GI50,SNB-75,48.6 µM (inactive)
same,GI50,SR,> 100 µM (inactive)
same,GI50,SW-620,> 100 µM (inactive)
same,GI50,T47D,> 100 µM (inactive)
same,GI50,TK-10,> 100 µM (inactive)
same,GI50,U-251,> 100 µM (inactive)
same,GI50,UACC-257,> 100 µM (inactive)
same,GI50,UACC-62,> 100 µM (inactive)
same,GI50,UO-31,> 100 µM (inactive)
